In article PMC10008561 (Nature Communications, 2023):
Several values for one entry are separate records, joined by “and”; a condition that tells them apart may be missing. Equal values may be shown once. Read-outs that look alike come from different tables or passages of the source.

Tests used:
human KOR [1] = biological target: human KOR (Homo sapiens, UniProt P41145); assay: cell-based; set-up: expressed in transfected cells; host or cells: HEK 293T (ATCC, CRL-3216); conditions: HEK-293T
human KOR [2] = biological target: T1, human KOR (Homo sapiens, UniProt P41145, W287A); assay: cell-based; conditions: HTLA
T1 construct: expressed in transfected cells; host or cells: HEK 293T (ATCC, CRL-3216)

KOR K227A = KOR K227A (Homo sapiens, UniProt P41145, K227A); format: cell-based; set-up: TEV cleavage site (C); tTA transcription factor (C); expressed in transfected cells; host or cells: HTLA cells; conditions: Log [Drug]
KOR Q115N [3] = biological target: T2, KOR Q115N (Homo sapiens, UniProt P41145, Q115N); assay: cell-based; set-up: TEV cleavage site (C); tTA transcription factor (C); expressed in transfected cells; host or cells: HTLA cells; conditions: read-out: Tango response (Figure S4C), KOR Q115N, Log [Drug], replicate values
Target sequence in this assay (P41145 whole entry Q115N): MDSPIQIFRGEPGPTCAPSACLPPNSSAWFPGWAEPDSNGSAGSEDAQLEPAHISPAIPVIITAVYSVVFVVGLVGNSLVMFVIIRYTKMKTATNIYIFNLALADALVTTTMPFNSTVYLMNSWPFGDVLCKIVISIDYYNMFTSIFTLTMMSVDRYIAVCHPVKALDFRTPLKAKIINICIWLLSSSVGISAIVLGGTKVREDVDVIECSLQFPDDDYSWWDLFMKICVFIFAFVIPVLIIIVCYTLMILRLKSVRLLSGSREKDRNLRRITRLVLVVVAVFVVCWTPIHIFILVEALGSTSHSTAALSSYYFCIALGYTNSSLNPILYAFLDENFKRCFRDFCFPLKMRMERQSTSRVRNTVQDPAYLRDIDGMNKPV
Target sequence in this assay (P32121 whole entry partner): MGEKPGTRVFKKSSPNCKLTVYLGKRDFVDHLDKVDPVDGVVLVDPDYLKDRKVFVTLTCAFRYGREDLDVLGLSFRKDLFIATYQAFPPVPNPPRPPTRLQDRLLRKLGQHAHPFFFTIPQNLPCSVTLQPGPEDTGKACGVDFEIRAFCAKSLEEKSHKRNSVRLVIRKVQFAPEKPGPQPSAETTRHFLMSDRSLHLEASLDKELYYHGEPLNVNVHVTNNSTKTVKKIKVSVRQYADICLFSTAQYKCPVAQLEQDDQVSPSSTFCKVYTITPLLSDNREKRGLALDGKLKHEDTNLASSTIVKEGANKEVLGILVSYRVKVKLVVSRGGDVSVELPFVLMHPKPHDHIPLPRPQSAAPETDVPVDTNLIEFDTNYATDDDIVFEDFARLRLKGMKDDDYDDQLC

KOR = assay: Bias factor, Gz vs β-arrestin2 (BRET), U50,488 as reference; format: cell-based, human
human KOR (Gi1) [4] = biological target: T3, human KOR (Gi1) (Homo sapiens, UniProt P41145, D105A); assay: cell-based; conditions: HEK-293T
T3 construct: expressed in transfected cells; host or cells: HEK293T

human KOR (Gi1) [5] = biological target: T4, human KOR (Gi1) (Homo sapiens, UniProt P41145, G319L); assay: cell-based; conditions: HEK-293T
T4 construct: expressed in transfected cells; host or cells: HEK293T

human KOR (Gi1) [6] = biological target: T5, human KOR (Gi1) (Homo sapiens, UniProt P41145, D266A); assay: cell-based; conditions: HEK-293T
T5 construct: expressed in transfected cells; host or cells: HEK293T

human KOR (Gi1) [7] = biological target: T6, human KOR (Gi1) (Homo sapiens, UniProt P41145, Y139L); assay: cell-based; conditions: HEK-293T
T6 construct: expressed in transfected cells; host or cells: HEK293T

human KOR (Gi1) [8] = biological target: T7, human KOR (Gi1) (Homo sapiens, UniProt P41145, F114L); assay: cell-based; conditions: HEK-293T
T7 construct: expressed in transfected cells; host or cells: HEK293T

human KOR (Gi1) [9] = biological target: T8, human KOR (Gi1) (Homo sapiens, UniProt P41145, Q115N); assay: cell-based; conditions: HEK-293T
T8 construct: expressed in transfected cells; host or cells: HEK293T

human KOR (Gi1) [10] = biological target: T9, human KOR (Gi1) (Homo sapiens, UniProt P41145, D155A); assay: cell-based; conditions: HEK-293T
T9 construct: expressed in transfected cells; host or cells: HEK293T

human KOR (Gi1) [11] = biological target: T10, human KOR (Gi1) (Homo sapiens, UniProt P41145, K200A); assay: cell-based; conditions: HEK-293T
T10 construct: expressed in transfected cells; host or cells: HEK293T

human KOR (Gi1) [12] = biological target: T11, human KOR (Gi1) (Homo sapiens, UniProt P41145, R274A); assay: cell-based; conditions: HEK-293T
T11 construct: expressed in transfected cells; host or cells: HEK293T

human KOR (Gi1) [13] = biological target: T12, human KOR (Gi1) (Homo sapiens, UniProt P41145, N141A); assay: cell-based; conditions: HEK-293T
T12 construct: expressed in transfected cells; host or cells: HEK293T

human KOR (Gi1) [14] = biological target: T13, human KOR (Gi1) (Homo sapiens, UniProt P41145); assay: cell-based
T13 construct: expressed in transfected cells; host or cells: HEK293T

human KOR (Gi1) [15] = biological target: T14, human KOR (Gi1) (Homo sapiens, UniProt P41145, D334A); assay: cell-based; conditions: HEK-293T
T14 construct: expressed in transfected cells; host or cells: HEK293T

human KOR (Gi1) [16] = biological target: T15, human KOR (Gi1) (Homo sapiens, UniProt P41145, F283A); assay: cell-based; conditions: HEK-293T
T15 construct: expressed in transfected cells; host or cells: HEK293T

human KOR (Gi1) [17] = biological target: T16, human KOR (Gi1) (Homo sapiens, UniProt P41145, R271A); assay: cell-based; conditions: HEK-293T
T16 construct: expressed in transfected cells; host or cells: HEK293T

human KOR (Gi1) [18] = biological target: T17, human KOR (Gi1) (Homo sapiens, UniProt P41145, T94V); assay: cell-based; conditions: HEK-293T
T17 construct: expressed in transfected cells; host or cells: HEK293T

KOR Q115N [19] = biological target: T2, KOR Q115N; assay: cell-based; set-up: expressed in transfected cells; host or cells: HEK 293T (ATCC, CRL-3216); conditions: read-out: cAMP response (Figure S4C), KOR Q115N, Log [Drug], replicate values
Target sequence in this assay (P41145 whole entry Q115N): as the sequence (P41145 whole entry Q115N) above

[20] = read-out: KOR WT_Gi response (Figure S4D)
[21] = read-out: cAMP response (Figure S4C)

human KOR (Homo sapiens, UniProt P41145), sequence (P41145 whole entry): as the sequence (P41145 whole entry Q115N) above, with N115Q counted along it
T13 sequence (P41145 whole entry): as the sequence (P41145 whole entry Q115N) above, with N115Q counted along it
KOR K227A, sequence (P41145 whole entry K227A): as the sequence (P41145 whole entry Q115N) above, with N115Q, K227A counted along it
KOR K227A, sequence (P32121 whole entry partner): as the sequence (P32121 whole entry partner) above
T12 sequence (P41145 whole entry N141A): as the sequence (P41145 whole entry Q115N) above, with N115Q, N141A counted along it
T17 sequence (P41145 whole entry T94V): as the sequence (P41145 whole entry Q115N) above, with T94V, N115Q counted along it
T1 sequence (P41145 whole entry W287A): as the sequence (P41145 whole entry Q115N) above, with N115Q, W287A counted along it
T5 sequence (P41145 whole entry D266A): as the sequence (P41145 whole entry Q115N) above, with N115Q, D266A counted along it
T11 sequence (P41145 whole entry R274A): as the sequence (P41145 whole entry Q115N) above, with N115Q, R274A counted along it
T3 sequence (P41145 whole entry D105A): as the sequence (P41145 whole entry Q115N) above, with D105A, N115Q counted along it
T4 sequence (P41145 whole entry G319L): as the sequence (P41145 whole entry Q115N) above, with N115Q, G319L counted along it
T15 sequence (P41145 whole entry F283A): as the sequence (P41145 whole entry Q115N) above, with N115Q, F283A counted along it
T10 sequence (P41145 whole entry K200A): as the sequence (P41145 whole entry Q115N) above, with N115Q, K200A counted along it
T14 sequence (P41145 whole entry D334A): as the sequence (P41145 whole entry Q115N) above, with N115Q, D334A counted along it
T8 sequence (P41145 whole entry Q115N): as the sequence (P41145 whole entry Q115N) above
T6 sequence (P41145 whole entry Y139L): as the sequence (P41145 whole entry Q115N) above, with N115Q, Y139L counted along it
T9 sequence (P41145 whole entry D155A): as the sequence (P41145 whole entry Q115N) above, with N115Q, D155A counted along it
T7 sequence (P41145 whole entry F114L): as the sequence (P41145 whole entry Q115N) above, with F114L, N115Q counted along it
T16 sequence (P41145 whole entry R271A): as the sequence (P41145 whole entry Q115N) above, with N115Q, R271A counted along it

## CN(C(=O)/C=C/c1ccoc1)[C@@H]1CC[C@@]2(O)[C@H]3Cc4ccc(O)c5c4[C@@]2(CCN3CC2CC2)[C@H]1O5 [Nalfurafine, nalfurafine]
Human KOR [1]
  Emax: 100 ± 2%
Human KOR [1]; [20]
  activation at 1 pM: 34.6%
  activation at 3.162 pM: 50.4%
  activation at 10 pM: 75.7%
  activation at 31.62 pM: 89.3%
  activation at 0.0001 µM: 97.6%
  activation at 0.001 µM: 96.5%
  activation at 0.1 µM: 103%
  activation at 1 µM: 100%
  activation at […]: 94.1% and 99.5% and 96.9%
Human KOR [1]; read-out: cAMP response
  activation at 1 pM: 42.4%
  activation at 3.162 pM: 56.3%
  activation at 10 pM: 78.7%
  activation at 31.62 pM: 90.8%
  activation at 0.0001 µM: 98.1%
  activation at 0.001 µM: 97.1%
  activation at 0.1 µM: 103%
  activation at 1 µM: 101%
  activation at […]: 95% (2×) and 99.8% and 97.5%
Human KOR [1]; [21]
  activation at 1 pM: 34.6%
  activation at 3.162 pM: 50.4%
  activation at 10 pM: 75.7%
  activation at 31.62 pM: 89.3%
  activation at 0.0001 µM: 97.6%
  activation at 0.001 µM: 96.5%
  activation at 0.1 µM: 103%
  activation at 1 µM: 100%
  activation at […]: 94.1% and 99.5% and 96.9%
Human KOR [2]
  Emax: 85 ± 7%
KOR K227A; M -6, replicate values
  KOR K227A_Arrestin response (Figure S4D): 101.315 and 102.717
KOR K227A; M -6.5, replicate values
  KOR K227A_Arrestin response (Figure S4D): 105.822 and 93.8848 and 97.1199
KOR K227A; M -7, replicate values
  KOR K227A_Arrestin response (Figure S4D): 91.3062 and 96.8492 and 89.7833
KOR K227A; M -7.5, replicate values
  KOR K227A_Arrestin response (Figure S4D): 70.8658 and 86.1016
KOR K227A; M -8, replicate values
  KOR K227A_Arrestin response (Figure S4D): 84.9439 and 77.9998
KOR K227A; M -8.5, replicate values
  KOR K227A_Arrestin response (Figure S4D): 65.7403 and 77.6179 and 69.9994
KOR K227A; M -9, replicate values
  KOR K227A_Arrestin response (Figure S4D): 59.6373 and 67.8004 and 59.0282
KOR K227A; M -9.5, replicate values
  KOR K227A_Arrestin response (Figure S4D): 49.3052 and 47.5598 and 61.4935
KOR K227A; M -10, replicate values
  KOR K227A_Arrestin response (Figure S4D): 39.6619 and 44.8012 and 31.3899
KOR K227A; M -10.5, replicate values
  KOR K227A_Arrestin response (Figure S4D): 20.4503 and 25.5006 and 21.705
KOR K227A; M -11, replicate values
  KOR K227A_Arrestin response (Figure S4D): 23.8027 and 10.0134 and 11.9765
KOR K227A; M -12, replicate values
  KOR K227A_Arrestin response (Figure S4D): 12.7008 and 13.5043
KOR K227A; M -12.5, replicate values
  KOR K227A_Arrestin response (Figure S4D): 6.071 and 3.454 and 8.161
KOR K227A; M -13, replicate values
  KOR K227A_Arrestin response (Figure S4D): 5.581 and 8.377 and 4.789
KOR K227A; M -14, replicate values
  KOR K227A_Arrestin response (Figure S4D): 0.5358 and 5.464 and 0.3918
KOR Q115N [3]; M -5
  activation at 10 µM: 106%
KOR Q115N [3]; M -6.5
  activation at […]: 92.3%
KOR Q115N [3]; M -7
  activation at 0.1 µM: 92.6%
KOR Q115N [3]; M -7.5
  activation at […]: 76.8%
KOR Q115N [3]; M -8
  activation at 0.01 µM: 80.2%
KOR Q115N [3]; M -8.5
  activation at […]: 39%
KOR
  bias factor towards Gz protein: 4.8
Human KOR (Gi1) [4]
  Emax: 94.3%
Human KOR (Gi1) [5]
  Emax: 116%
Human KOR (Gi1) [6]
  Emax: 106%
Human KOR (Gi1) [7]
  Emax: 96.7%
Human KOR (Gi1) [8]
  Emax: 65.5%
Human KOR (Gi1) [9]
  Emax: 77.3%
Human KOR (Gi1) [10]
  Emax: 79.1%
Human KOR (Gi1) [11]
  Emax: 96.1%
Human KOR (Gi1) [12]
  Emax: 100%
Human KOR (Gi1) [13]
  Emax: 101%
Human KOR (Gi1) [14]
  Emax%: 101.1% and 100%
Human KOR (Gi1) [14]; HEK-293T
  Emax: 85 ± 7%
Human KOR (Gi1) [15]
  Emax: 77.5%
Human KOR (Gi1) [16]
  Emax: 77.6%
Human KOR (Gi1) [17]
  Emax: 105%
Human KOR (Gi1) [18]
  Emax: 99.2%
KOR Q115N [19]; M -6
  activation at 1 µM: 99.3%
KOR Q115N [19]; M -6.5
  activation at […]: 94.1%
KOR Q115N [19]; M -7
  activation at 0.1 µM: 101%
KOR Q115N [19]; M -7.5
  activation at […]: 96.7%
KOR Q115N [19]; M -8
  activation at 0.01 µM: 100%
KOR Q115N [19]; M -8.5
  activation at […]: 91.3%
KOR Q115N [19]; M -9
  activation at 0.001 µM: 89.3%
KOR Q115N [19]; M -9.5
  activation at […]: 82.2%
KOR Q115N [19]; M -10
  activation at 0.0001 µM: 67.6%
KOR Q115N [19]; M -11
  activation at 10 pM: 7.51%
